Laboratory results reported in US20260269287A1, “ALL-NONAQUEOUS MEMBRANE-FREE FLOW BATTERIES” (University of Cincinnati, priority 2023, published 2026).
Entries after “also recorded” stand apart in the source; their conditions may differ.

Assays:
Assay type in all cases: physicochemical
[1] = Screening of cathode materials: solubilities in both phases of the FEC/BMP-TFSI nonaqueous biphasic system; conditions: for solubility in FEC (catholyte): FEC / cathode electrolyte FEC/LiClO4; for affinity towards the anolyte: anode electrolyte BMP-TFSI/LiTFSI
Procedure: (§1) To explore catholyte materials that meet these solubility requirements, eleven organic compounds were selected, and their solubilities in both phases of the NBS were tested. These materials included derivatives of phenothiazine, cyclopropenium, 2,2,6,6-tetramethylpiperidinyloxy (TEMPO), anthraquinone (AQ), and ferrocene (FIG. 9).
as §1, with “cyclopropenium” for “cyclopropenium,”, “33). […] The solubilities of Tri-TEMPO, C3-PTZ, and CP in 1.5 M FEC/LiClO4 were ~1.2 M, ~1 M, and 1.8 M, respectively.” for “9).”
as §1, with “(FIGS. 33 and 102). […] The solubilities of Tri-TEMPO, C3-PTZ, and CP in […] (1.5 M) were ~1.2 M, ~1 M, and 1.8 M, respectively.” for “(FIG. 9).”

[2] = Solubility test in 1.5 M LiClO4/FEC; conditions: average of repeated tests
Procedure: (§2) Solubility test. A solution of 1.5 M LiClO4/FEC was used for the solubility measurements. The solution was gradually added to a vial containing known amounts of the organic compounds used as the catholytes (Tri-TEMPO, C3-PTZ, and CP). Once a clear solution was obtained, the volume of the electrolyte was determined using an analytical pipette. The solubilities of the organic compounds were calculated from the ratio of the molar amount to the electrolyte volume. These steps were repeated twice, and the average values are presented.
as §2, with “processes” for “steps”
Solubility Test. A solution of FEC/LiClO4 (1.5 M) was used for the solubility measurements under an inert argon atmosphere at a temperature of 27° C. The solution was gradually added to a vial containing known amounts of the organic compounds used as the catholytes (Tri-TEMPO, C3-PTZ, and CP). Once a clear solution was obtained, the volume (50 μL) of the electrolyte was determined using an analytical pipette (P20). The solubilities of the organic compounds were calculated from the ratio of the molar amount to the electrolyte volume. These processes were repeated twice, and the average values are presented.

[3] = Cyclic voltammetry of redox-active cathode materials in 0.1 M LiClO4/FEC; conditions: for reversible redox couple potential: 5 mM in 0.1 M LiClO4/FEC; for electrochemical stability on repeated CV cycling: in 0.1 M LiClO4/FEC, 1st vs 2000th cycle at 200 mV/s; for ratio of cathodic peak current (ipc) and anodic peak current (ipa): scan rates 50-200 mV/s
Procedure: (§3) Electrochemical characterization. CV measurements were performed to evaluate the electrochemical properties of the redox-active materials (Tri-TEMPO, C3-PTZ, and CP) as well as the crossover of the redox-active materials before and after long-term battery cycling. For the CV measurements, 5 mM Tri-TEMPO, 5 mM C3-PTZ, and 5 mM CP solutions were prepared in 0.1 M LiClO4/FEC electrolyte. A 3-mm glassy carbon disk was used as the working electrode and was polished with 5-nm Al2O3 before the measurements. A piece of Pt wire (0.5 mm) was used as the counter electrode while a Ag/Ag^+ electrode was used as the reference electrode.
as §3, with “characterizations.” for “characterization.”, “mM of” for “mM”, “Tri-TEMPO,” for “Tri-TEMPO, 5 mM”, “and” for “and 5 mM”, “FEC/LiClO4” for “LiClO4/FEC”, “5 nm” for “5-nm”
Electrochemical Characterizations. For the CV measurements, 5 mM of Tri-TEMPO, C3-PTZ, and CP solutions were prepared in FEC/LiClO4 (0.1 M) electrolyte. A glassy carbon disk (CHI Instrument, 3 mm) was used as the working electrode and was polished with Al2O3(Pine Research Instrumentation, Inc., […]) before the measurements, where water was used as the solvent to polish the electrode. A piece of Pt wire (Pine Research Instrumentation, Inc., thickness 0.5 mm, purity 99.99%) was used as the counter electrode while an Ag/Ag+ (Fisher Scientific) electrode was used as the reference electrode. The CV measurements were performed using a Bio-Logic potentiostat. Electrochemical impedance spectroscopy (EIS) was performed using a potentiostatic signal spanning from 200 KHz to 100 mHz, with an amplitude of 10 mV. The measurements were conducted under open-circuit voltage (OCV) conditions for a total of 54 data points. The charge/discharge performances were evaluated using Land and Bio-Logic potentiostats.

[4] = Crossover in the biphasic system under static conditions (UV-visible spectroscopy and CV); conditions: 15 days, 0.5 M redox material, FEC/BMP-TFSI biphasic system
Procedure: as §1
as §1, with “cyclopropenium” for “cyclopropenium,”, “33). […] The solubilities of Tri-TEMPO, C3-PTZ, and CP in 1.5 M FEC/LiClO4 were ~1.2 M, ~1 M, and 1.8 M, respectively.” for “9).”
as §1, with “(FIGS. 33 and 102). […] The solubilities of Tri-TEMPO, C3-PTZ, and CP in […] (1.5 M) were ~1.2 M, ~1 M, and 1.8 M, respectively.” for “(FIG. 9).”
Physiochemical Characterization. The UV-visible absorption spectra were recorded using a UV-visible spectrophotometer (Cary 8454 UV-Vis, Agilent Technologies). To perform UV-vis measurements, samples with concentrations below 5 mM were prepared. To achieve this, highly concentrated samples were diluted in an appropriate electrolyte solvent before conducting the UV-vis measurements. For the UV-vis calibration curve, stock solutions of Tri-TEMPO at concentrations of 0.3 M and 0.5 M were prepared in FEC/LiClO4 (1.5 M). These solutions were then further diluted to prepare solutions with concentrations of 1, 2, 3, 4, and 5 mM. In addition, a blank sample containing no redox materials was prepared to measure the UV-vis spectrum. The absorption intensity of the UV-vis spectra at different concentrations was used to construct the UV-vis calibration curve. […]

[5] = 1H NMR stability of C3-PTZ and CP at room temperature and 60° C.; conditions: over 10 days at 25° C. and 60° C., CD3CN
Procedure: The ^1H NMR spectra were recorded on a Bruker AV400 spectrometer (400 MHz). The chemical shifts were reported in ppm. To determine if CP or C3PTZ had crossed through the biphasic layer, we extracted […] samples from anolyte before and after subjecting the system to extended charge/discharge cycles (~100 cycles). These […] samples were subjected to 1H NMR analysis by combining them with […] of CD3CN, resulting in a total NMR solvent volume of […]. In addition, we followed specific sample preparation procedures to assess the stability of CP and C3-PTZ using ^1H NMR. Approximately 5 mg of either solid CP or C3-PTZ was mixed with […] of CD3CN to create NMR samples. Two NMR samples were prepared for each compound in NMR tubes equipped with J. Young air-inlet valves. Firstly, we recorded ^1H NMR spectra for these NMR samples, after which we stored one NMR tube of each sample at room temperature while the other was placed at 60° C. Subsequently, we collected a series of ^1H NMR spectra at 24-h intervals for 10 days using these samples.

[6] = 1H and 19F NMR determination of LiTFSI concentration in the TEGDME and NFTTS layers; conditions: TEGDME/NFTTS biphasic system after salt-out
Procedure: Physicochemical characterizations. The UV-visible absorption spectra were collected on a UV-visible spectrophotometer (Agilent Technologies, Cary 8454 UV-Vis). To perform UV-visible measurements, dilute samples with concentrations below 5 mM were prepared. To achieve this, highly concentrated samples were diluted in an appropriate electrolyte solvent before conducting the UV-visible measurements. A blank sample containing no redox materials was prepared to measure the UV-visible spectrum. The ^1H and ^19F NMR spectra were recorded on a Bruker AV400 spectrometer (400 MHz). The chemical shifts were reported in ppm. To measure the concentration of LiTFSI in TEGDME and NFTTS layers of the biphasic system, a sample of 10 μL volume was collected from each layer and mixed with 400 μL of CDCl3 for preparing the NMR samples. ^1H NMR spectra were first recorded using these samples, and 50 μL of TBAPF6, as an internal standard, was then added to those samples before performing ^19F NMR.
For Design-I, because the gravimetric densities of the solvents followed the sequence TEGDME<NFTTS<FEC, TEGDME was used as the anolyte for the top layer, NFTTS as the ion-exchange layer in the middle, and FEC as the catholyte in the bottom layer. […] This property poses a challenge in constructing a stable triphasic system with the desired immiscibility between the layers. […]

SMILES	solubility in FEC (catholyte) [1]	affinity towards the anolyte [1]	solubility [2]	reversible redox couple potential [3] [V vs. Ag/Ag^+]	electrochemical stability on repeated CV cycling [3]	ratio of cathodic peak current (ipc) and anodic peak current (ipa) [3]	crossover from catholyte to anolyte [4]	thermostability by 1H NMR [5]	concentration of LiTFSI in the NFTTS phase [6] [M]	concentration of LiTFSI in the TEGDME phase [6] [M]
CCCN1c2ccccc2Sc2ccccc21 [C3-PTZ, N-propyl phenothiazine]	high solubilities	extremely poor affinity	~ 1 M	0.33	high cycling stability	~1	Negligible crossover	superior thermostability; also recorded: improved thermo-stability		
O=S(=O)([N-]S(=O)(=O)C(F)(F)F)C(F)(F)F.[Li+] [LiTFSI, lithium bis(trifluoromethanesulfonyl)imide]									0.14	1
CCCCN(CC)c1c(N(CC)CCCC)[c+]1N(CC)CCCC.F[P-](F)(F)(F)(F)F [CP, tris(dialkylamino)cyclo-propenium]	high solubilities	extremely poor affinity	1.8 M	0.93	high cycling stability	~1	Negligible crossover	superior thermostability; also recorded: improved thermo-stability		
CC1(C)CC(Nc2nc(NC3CC(C)(C)N(OC4CCCCC4)C(C)(C)C3)nc(NC3CC(C)(C)N(OC4CCCCC4)C(C)(C)C3)n2)CC(C)(C)N1OC1CCCCC1 [Tri-TEMPO, 2,4,6-tri-(1-cyclohex-yloxy-4-imino-2,2,6,6-tetramethylpiperidine)-1,3,5-triazine]	high solubilities	extremely poor affinity	~ 1.2 M	0.37	high cycling stability	~1	Negligible crossover			
